Source: US8772250B2, “Compositions and methods for treating ischemia and ischemia-reperfusion injury” (Ischemix, LLC, priority 2010, dated 2014)
Read-outs that look alike come from different tables or passages of the source.

Test: Pharmacokinetic evaluation in humans
Assay type: in vivo
Conditions: human; for CL renal: plasma and urine; for AUC(0-inf) / clearance / Cmax / Vd / half-life / AUC(0-t): plasma
Description: Plasma and urine RLip-EA-OH concentrations were measured at BASi, Inc. (West Lafayette, Ind.) using a LC/MS/MS method with positive turbo ion spray, in the multiple reaction-monitoring mode. The quantifiable range for human plasma was 1.00 to 500 ng/mL and QC samples were included at 3.00, 75.0 and 375 ng/mL.
The PK population included subjects who received RLip-EA-OH and had ≧1 post-dose PK measurement. […] Plasma samples from 24 subjects (6 RLip-EA-OH subjects per cohort) were analyzed (Tables 16 and 17).

## C[C@H](NC(=O)[C@H](CCC(=O)O)NC(=O)CCCC[C@@H]1CCSS1)C(=O)O [RLip-EA-OH, N-(R)-lipoyl-L-glutamyl-L- alanine]
20 mg, noncompartmental, read-out: Renal clearance, Mean (SD) (converted)
  CL renal: 168 mL/min
20 mg, noncompartmental, read-out: Renal clearance, Median (converted)
  CL renal: 186 mL/min
20 mg, noncompartmental, read-out: Renal clearance, Minimum, maximum
  CL renal: 80.8 to 255 mL/min
60 mg, noncompartmental, read-out: Renal clearance, Mean (SD) (converted)
  CL renal: 181 mL/min
60 mg, noncompartmental, read-out: Renal clearance, Median (converted)
  CL renal: 188 mL/min
60 mg, noncompartmental, read-out: Renal clearance, Minimum, maximum
  CL renal: 135 to 220 mL/min
150 mg, noncompartmental, read-out: Renal clearance, Mean (SD) (converted)
  CL renal: 124 mL/min
150 mg, noncompartmental, read-out: Renal clearance, Median (converted)
  CL renal: 98 mL/min
150 mg, noncompartmental, read-out: Renal clearance, Minimum, maximum
  CL renal: 58.5 to 243 mL/min
300 mg, noncompartmental, read-out: Renal clearance, Mean (SD) (converted)
  CL renal: 141 mL/min
300 mg, noncompartmental, read-out: Renal clearance, Median (converted)
  CL renal: 140 mL/min
300 mg, noncompartmental, read-out: Renal clearance, Minimum, maximum
  CL renal: 85.2 to 200 mL/min
20 mg, compartmental, read-out: AUCinf, Mean (SD)
  AUC(0-inf): 621 ng·h/mL
20 mg, compartmental, read-out: AUCinf, Median
  AUC(0-inf): 614 ng·h/mL
20 mg, compartmental, read-out: AUCinf, Minimum, maximum
  AUC(0-inf): 474 to 787 ng·h/mL
20 mg, compartmental, read-out: CL, Mean (SD) (converted)
  clearance: 557 mL/min
20 mg, compartmental, read-out: CL, Median (converted)
  clearance: 545 mL/min
20 mg, compartmental, read-out: CL, Minimum, maximum
  clearance: 423 to 703 mL/min
20 mg, compartmental, read-out: Estimated Cmax, Mean (SD)
  Cmax: 2360 ng/mL
20 mg, compartmental, read-out: Estimated Cmax, Median
  Cmax: 2480 ng/mL
20 mg, compartmental, read-out: Estimated Cmax, Minimum, maximum
  Cmax: 1360 to 3340 ng/mL
20 mg, compartmental, read-out: Vss, Mean (SD)
  Vd: 16 L
20 mg, compartmental, read-out: Vss, Median
  Vd: 16 L
20 mg, compartmental, read-out: Vss, Minimum, maximum
  Vd: 11 to 20 L
20 mg, compartmental, read-out: t1/2, Mean (SD) (converted)
  half-life: 1 h
20 mg, compartmental, read-out: t1/2, Median (converted)
  half-life: 0.8 h
20 mg, compartmental, read-out: t1/2, Minimum, maximum
  half-life: 0.6 to 1.6 h
20 mg, noncompartmental, read-out: AUC0-t, Mean (SD)
  AUC(0-t): 581 ng·h/mL
20 mg, noncompartmental, read-out: AUC0-t, Median
  AUC(0-t): 556 ng·h/mL
20 mg, noncompartmental, read-out: AUC0-t, Minimum, maximum
  AUC(0-t): 466 to 717 ng·h/mL
20 mg, noncompartmental, read-out: AUCinf, Mean (SD)
  AUC(0-inf): 583 ng·h/mL
20 mg, noncompartmental, read-out: AUCinf, Median
  AUC(0-inf): 558 ng·h/mL
20 mg, noncompartmental, read-out: AUCinf, Minimum, maximum
  AUC(0-inf): 467 to 718 ng·h/mL
20 mg, noncompartmental, read-out: CL, Mean (SD) (converted)
  clearance: 588 mL/min
20 mg, noncompartmental, read-out: CL, Median (converted)
  clearance: 598 mL/min
20 mg, noncompartmental, read-out: CL, Minimum, maximum
  clearance: 465 to 713 mL/min
20 mg, noncompartmental, read-out: Cmax, Mean (SD)
  Cmax: 1830 ng/mL
20 mg, noncompartmental, read-out: Cmax, Median
  Cmax: 1840 ng/mL
20 mg, noncompartmental, read-out: Cmax, Minimum, maximum
  Cmax: 1220 to 2420 ng/mL
20 mg, noncompartmental, read-out: Vss, Mean (SD)
  Vd: 18.5 L
20 mg, noncompartmental, read-out: Vss, Median
  Vd: 18.7 L
20 mg, noncompartmental, read-out: Vss, Minimum, maximum
  Vd: 14.4 to 22.4 L
20 mg, noncompartmental, read-out: t1/2, Mean (SD) (converted)
  half-life: 0.86 h
20 mg, noncompartmental, read-out: t1/2, Median (converted)
  half-life: 0.76 h
20 mg, noncompartmental, read-out: t1/2, Minimum, maximum
  half-life: 0.61 to 1.41 h
20 mg, read-out: CL (converted)
  clearance: 588 mL/min
60 mg, compartmental, read-out: AUCinf, Mean (SD)
  AUC(0-inf): 2260 ng·h/mL
60 mg, compartmental, read-out: AUCinf, Median
  AUC(0-inf): 1910 ng·h/mL
60 mg, compartmental, read-out: AUCinf, Minimum, maximum
  AUC(0-inf): 1770 to 3160 ng·h/mL
60 mg, compartmental, read-out: CL, Mean (SD) (converted)
  clearance: 467 mL/min
60 mg, compartmental, read-out: CL, Median (converted)
  clearance: 523 mL/min
60 mg, compartmental, read-out: CL, Minimum, maximum
  clearance: 317 to 565 mL/min
60 mg, compartmental, read-out: Estimated Cmax, Mean (SD)
  Cmax: 6870 ng/mL
60 mg, compartmental, read-out: Estimated Cmax, Median
  Cmax: 6290 ng/mL
60 mg, compartmental, read-out: Estimated Cmax, Minimum, maximum
  Cmax: 5520 to 9050 ng/mL
60 mg, compartmental, read-out: Vss, Mean (SD)
  Vd: 14 L
60 mg, compartmental, read-out: Vss, Median
  Vd: 15 L
60 mg, compartmental, read-out: Vss, Minimum, maximum
  Vd: 10 to 17 L
60 mg, compartmental, read-out: t1/2, Mean (SD) (converted)
  half-life: 1.5 h
60 mg, compartmental, read-out: t1/2, Median (converted)
  half-life: 1.4 h
60 mg, compartmental, read-out: t1/2, Minimum, maximum
  half-life: 1.1 to 2.6 h
60 mg, noncompartmental, read-out: AUC0-t, Mean (SD)
  AUC(0-t): 2250 ng·h/mL
60 mg, noncompartmental, read-out: AUC0-t, Median
  AUC(0-t): 1980 ng·h/mL
60 mg, noncompartmental, read-out: AUC0-t, Minimum, maximum
  AUC(0-t): 1720 to 3110 ng·h/mL
60 mg, noncompartmental, read-out: AUCinf, Mean (SD)
  AUC(0-inf): 2260 ng·h/mL
60 mg, noncompartmental, read-out: AUCinf, Median
  AUC(0-inf): 1980 ng·h/mL
60 mg, noncompartmental, read-out: AUCinf, Minimum, maximum
  AUC(0-inf): 1720 to 3110 ng·h/mL
60 mg, noncompartmental, read-out: CL, Mean (SD) (converted)
  clearance: 467 mL/min
60 mg, noncompartmental, read-out: CL, Median (converted)
  clearance: 505 mL/min
60 mg, noncompartmental, read-out: CL, Minimum, maximum
  clearance: 322 to 582 mL/min
60 mg, noncompartmental, read-out: Cmax, Mean (SD)
  Cmax: 6560 ng/mL
60 mg, noncompartmental, read-out: Cmax, Median
  Cmax: 6840 ng/mL
60 mg, noncompartmental, read-out: Cmax, Minimum, maximum
  Cmax: 5190 to 7990 ng/mL
60 mg, noncompartmental, read-out: Vss, Mean (SD)
  Vd: 14.9 L
60 mg, noncompartmental, read-out: Vss, Median
  Vd: 14.8 L
60 mg, noncompartmental, read-out: Vss, Minimum, maximum
  Vd: 11.3 to 18.6 L
60 mg, noncompartmental, read-out: t1/2, Mean (SD) (converted)
  half-life: 1.21 h
60 mg, noncompartmental, read-out: t1/2, Median (converted)
  half-life: 1.26 h
60 mg, noncompartmental, read-out: t1/2, Minimum, maximum
  half-life: 0.84 to 1.5 h
150 mg, compartmental, read-out: AUCinf, Mean (SD)
  AUC(0-inf): 7030 ng·h/mL
150 mg, compartmental, read-out: AUCinf, Median
  AUC(0-inf): 6920 ng·h/mL
150 mg, compartmental, read-out: AUCinf, Minimum, maximum
  AUC(0-inf): 4890 to 9610 ng·h/mL
150 mg, compartmental, read-out: CL, Mean (SD) (converted)
  clearance: 370 mL/min
